Patent publication US11203587B2, “Thyroid hormone receptor beta agonist compounds” (Terns, Inc., priority 2018, dated 2021)
pEC50: −log10 of the molar value.

Key:
THR beta-LBD = molecular target: T1, THR beta-LBD (Homo sapiens, UniProt P10828); experiment: LanthaScreen TR-FRET Thyroid Receptor beta Coactivator Assay; format: biochemical; settings: for THRβ-Selectivity: THR beta over THR alpha, derived from T3-selectivity normalized data; for pEC50: TR-FRET coactivator assay, 2 hours incubation at room temperature, run in duplicate multiple times, average data, read-out: EC50 THRβ-FRET
T1 construct: THR alpha-LBD (0.4 nM final concentration) or THR beta-LBD (1.0 nM final concentration) was added; purchased ThermoFisher
T1 sequence (P10828 217-461 limits assumed): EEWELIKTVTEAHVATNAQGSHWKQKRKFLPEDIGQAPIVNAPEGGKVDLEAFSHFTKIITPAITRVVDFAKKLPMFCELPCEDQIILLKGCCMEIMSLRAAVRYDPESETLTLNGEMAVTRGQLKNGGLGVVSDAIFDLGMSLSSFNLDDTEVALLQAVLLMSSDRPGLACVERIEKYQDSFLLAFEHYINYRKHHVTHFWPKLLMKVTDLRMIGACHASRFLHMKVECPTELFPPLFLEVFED
Method: LanthaScreen™ TR-FRET Thyroid Receptor alpha Coactivator Assay kit (ThermoFisher) and LanthaScreen™ TR-FRET Thyroid Receptor beta Coactivator Assay kit (ThermoFisher) were used for agonist compound screening. […] Buffer C (ThermoFisher) was added to each well before the 4× mixture of fluorescein-SCR2-2 coactivator (200 nM final concentration), Terbium-labeled anti-GST antibody (2 nM final concentration), and THR alpha-LBD (0.4 nM final concentration) or THR beta-LBD (1.0 nM final concentration) was added.

THR alpha-LBD = molecular target: T2, THR alpha-LBD (Homo sapiens, UniProt P10827); experiment: LanthaScreen TR-FRET Thyroid Receptor alpha Coactivator Assay; format: biochemical; settings: 2 hours incubation at room temperature, run in duplicate multiple times, average data, read-out: EC50 THRα-FRET
T2 construct: THR alpha-LBD (0.4 nM final concentration) or THR beta-LBD (1.0 nM final concentration) was added; purchased ThermoFisher
Method: Example B1: Time-Resolved Fluorescence Resonance Energy Transfer (TR-FRET) Assay for Thyroid Hormone Receptor Agonist Screening
LanthaScreen™ TR-FRET Thyroid Receptor alpha Coactivator Assay kit (ThermoFisher) and LanthaScreen™ TR-FRET Thyroid Receptor beta Coactivator Assay kit (ThermoFisher) were used for agonist compound screening. Compounds in DMSO were diluted using ECHO Liquid Handler (Labcyte Inc.) into 384 plates in 10-point 3-fold series in duplicate (5 micro M final top concentration). Buffer C (ThermoFisher) was added to each well before the 4× mixture of fluorescein-SCR2-2 coactivator (200 nM final concentration), Terbium-labeled anti-GST antibody (2 nM final concentration), and THR alpha-LBD (0.4 nM final concentration) or THR beta-LBD (1.0 nM final concentration) was added. After 2 hours incubation at room temperature in the dark, the TR-FRET signal was measured on an EnVision plate reader (PerkinElmer) with excitation at 340 nm and dual emission readout at 495 and 520 nm with the delay time of 100 micro second and the integration time of 200 micro second. The ratio of emission signal at 520 and at 495 was used to calculate EC50 using GraphPad Prism (GraphPad Software). […] Compounds' THR-beta selectivity values in Table 2 are derived from T3-selectivity normalized data.

T2 sequence (P10827 163-410 isoform P10827-2 limits assumed, other chains not shown): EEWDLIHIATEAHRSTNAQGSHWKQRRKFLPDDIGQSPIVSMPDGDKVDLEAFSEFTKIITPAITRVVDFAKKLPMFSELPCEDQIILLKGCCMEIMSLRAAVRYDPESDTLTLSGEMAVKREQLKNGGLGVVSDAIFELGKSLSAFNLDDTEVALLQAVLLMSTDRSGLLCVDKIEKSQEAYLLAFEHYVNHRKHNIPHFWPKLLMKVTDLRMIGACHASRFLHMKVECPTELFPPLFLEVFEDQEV

Row | SMILES | THRβ-Selectivity (THR beta-LBD; listed as 31 P1) | pEC50 (THR beta-LBD) | pEC50 (THR alpha-LBD) | THRβ-Selectivity (THR beta-LBD) | THRβ-Selectivity (THR beta-LBD; listed as 33 P1) | THRβ-Selectivity (THR beta-LBD; listed as 33 P2)
1 | CC(C)c1cc(Oc2c(Cl)cc(-c3n[nH]c(=O)[nH]c3=O)cc2Cl)nn(C)c1=O [Compound 1, 6-(3,5-dichloro-4-((5-isopropyl-1-methyl-6-oxo-1,6-dihydropyridazin-3-yl)oxy)phenyl)-1,2,4-triazine-3,5(2H,4H)-dione] |  | 7.61 | 7.10 | 17 |  | 
2 | CC(C)c1cc(Oc2c(Cl)cc(-c3n[nH]c(=O)[nH]c3=O)cc2Cl)n[nH]c1=O [Compound 2, 6-(3,5-dichloro-4-((5-isopropyl-6-oxo-1,6-dihydropyridazin-3-yl)oxy)phenyl)-1,2,4-triazine-3,5(2H,4H)-dione] |  | 6.85 | 6.17 | 27.7 |  | 
3 | CC(C)c1cc(Oc2c(Cl)cc(-c3nn(C)c(=O)[nH]c3=O)cc2Cl)n[nH]c1=O [Compound 3, 6-(3,5-dichloro-4-((5-isopropyl-6-oxo-1,6-dihydropyridazin-3-yl)oxy)phenyl)-2-methyl-1,2,4-triazine-3,5(2H,4H)-dione] |  | 6.94 | 5.91 | 69.8 |  | 
4 | CC(C)c1cc(Oc2c(Cl)cc(-c3nn(C(C)C)c(=O)[nH]c3=O)cc2Cl)n[nH]c1=O [Compound 4, 6-(3,5-dichloro-4-((5-isopropyl-6-oxo-1,6-dihydropyridazin-3-yl)oxy)phenyl)-2-isopropyl-1,2,4-triazine-3,5(2H,4H)-dione] |  | < 5.30 | < 5.30 | >3.0 |  | 
5 | Cc1c(-c2n[nH]c(=O)[nH]c2=O)cc(Cl)c(Oc2cc(C(C)C)c(=O)n(C)n2)c1Cl [Compound 5, 6-(3,5-dichloro-4-((5-isopropyl-1-methyl-6-oxo-1,6-dihydropyridazin-3-yl)oxy)-2-methylphenyl)-1,2,4-triazine-3,5(2H,4H)-dione] |  | 7.01 | 7.20 | 2.3 |  | 
6 | O=c1[nH]nc(-c2cc(Cl)c(Oc3cc(C4CC4)c(=O)[nH]n3)c(Cl)c2)c(=O)[nH]1 [Compound 6, 6-(3,5-dichloro-4-((5-cyclopropyl-6-oxo-1,6-dihydropyridazin-3-yl)oxy)phenyl)-1,2,4-triazine-3,5(2H,4H)-dione] |  | 6.71 | 6.01 | 23.6 |  | 
7 | CC(C)c1cc(C(=O)c2c(Cl)cc(-c3n[nH]c(=O)[nH]c3=O)cc2Cl)nn(C)c1=O [Compound 7, 6-(3,5-dichloro-4-(5-isopropyl-1-methyl-6-oxo-1,6-dihydropyridazine-3-carbonyl)phenyl)-1,2,4-triazine-3,5(2H,4H)-dione] |  | 6.87 | 6.36 | 15.3 |  | 
8 | CC(C)c1cc(C(=O)c2c(Cl)cc(-c3n[nH]c(=O)[nH]c3=O)cc2Cl)n[nH]c1=O [Compound 8, 6-(3,5-dichloro-4-(5-isopropyl-6-oxo-1,6-dihydropyridazine-3-carbonyl)phenyl)-1,2,4-triazine-3,5(2H,4H)-dione] |  | 5.84 | 5.44 | 9.5 |  | 

Second part, the molecule after the results:

Row | THRβ-Selectivity (THR beta-LBD; listed as 31 P1) | pEC50 (THR beta-LBD) | pEC50 (THR alpha-LBD) | THRβ-Selectivity (THR beta-LBD) | THRβ-Selectivity (THR beta-LBD; listed as 33 P1) | THRβ-Selectivity (THR beta-LBD; listed as 33 P2) | SMILES
9 | >26.2 | 5.92 | < 5.30 |  |  |  | C[C@@H](O)c1cc(Oc2c(Cl)cc(-c3nn(C)c(=O)[nH]c3=O)cc2Cl)n[nH]c1=O (single isomer, unassigned) [Compound 31 P1]
10 |  | 6.35 | 5.51 | 21.7 |  |  | C[C@@H](O)c1cc(Oc2c(Cl)cc(-c3nn(C)c(=O)[nH]c3=O)cc2Cl)n[nH]c1=O (single isomer, unassigned) [Compound 31 P2]
11 |  | 6.16 | 5.61 |  | 11.3 |  | CC[C@@H](C)c1cc(Oc2c(Cl)cc(-c3n[nH]c(=O)[nH]c3=O)cc2Cl)n[nH]c1=O (single isomer, unassigned) [Compound 33 P1]
12 |  | 7.18 | 6.56 |  |  | 14.1 | CC[C@@H](C)c1cc(Oc2c(Cl)cc(-c3n[nH]c(=O)[nH]c3=O)cc2Cl)n[nH]c1=O (single isomer, unassigned) [Compound 33 P2]
13 |  | 7.62 | 6.79 | 25.5 |  |  | CC(C)c1cc(Oc2c(Cl)cc(-c3nn(C)c(=O)[nH]c3=O)cc2Cl)nn(C)c1=O [Compound 9, 6-(3,5-dichloro-4-((5-isopropyl-1-methyl-6-oxo-1,6-dihydropyridazin-3-yl)oxy)phenyl)-2-methyl-1,2,4-triazine-3,5(2H,4H)-dione]
14 |  | 6.12 | < 5.30 | >27.4 |  |  | CC(C)c1cc(C(=O)c2c(Cl)cc(-c3nn(C)c(=O)[nH]c3=O)cc2Cl)n[nH]c1=O [Compound 13, 6-(3,5-dichloro-4-(5-isopropyl-6-oxo-1,6-dihydropyridazine-3-carbonyl)phenyl)-2-methyl-1,2,4-triazine-3,5(2H,4H)-dione]
15 |  | 6.42 | 5.48 | 31.2 |  |  | CC(C)c1cc(Cc2c(Cl)cc(-c3n[nH]c(=O)[nH]c3=O)cc2Cl)n[nH]c1=O [Compound 15, 6-(3,5-dichloro-4-((5-isopropyl-6-oxo-1,6-dihydropyridazin-3-yl)methyl)phenyl)-1,2,4-triazine-3,5(2H,4H)-dione]
16 |  | 6.79 | 5.92 | 28.3 |  |  | CC(C)c1cc(Cc2c(Cl)cc(-c3nn(C)c(=O)[nH]c3=O)cc2Cl)n[nH]c1=O [Compound 16, 6-(3,5-dichloro-4-((5-isopropyl-6-oxo-1,6-dihydropyridazin-3-yl)methyl)phenyl)-2-methyl-1,2,4-triazine-3,5(2H,4H)-dione]
17 |  | 7.46 | 7.00 | 11.1 |  |  | CC(C)c1cc(Cc2c(Cl)cc(-c3n[nH]c(=O)[nH]c3=O)cc2Cl)nn(C)c1=O [Compound 17, 6-(3,5-dichloro-4-((5-isopropyl-1-methyl-6-oxo-1,6-dihydropyridazin-3-yl)methyl)phenyl)-1,2,4-triazine-3,5(2H,4H)-dione]
18 |  | 5.85 | < 5.30 | 13.9 |  |  | CCn1nc(-c2cc(Cl)c(Oc3cc(C(C)C)c(=O)[nH]n3)c(Cl)c2)c(=O)[nH]c1=O [Compound 19, 6-(3,5-dichloro-4-((5-isopropyl-6-oxo-1,6-dihydropyridazin-3-yl)oxy)phenyl)-2-ethyl-1,2,4-triazine-3,5(2H,4H)-dione]
19 |  | 5.71 | 5.88 | 2.7 |  |  | CCOC(=O)Cn1nc(-c2cc(Cl)c(Oc3cc(C(C)C)c(=O)[nH]n3)c(Cl)c2)c(=O)[nH]c1=O [Compound 20, ethyl 2-(6-(3,5-dichloro-4-((5-isopropyl-6-oxo-1,6-dihydropyridazin-3-yl)oxy)phenyl)-3,5-dioxo-4,5-dihydro-1,2,4-triazin-2(3H)-yl)acetate]
20 |  | 5.54 | < 5.30 | >9.5 |  |  | CC(C)c1cc(Oc2c(Cl)cc(-c3nn(CC(F)(F)F)c(=O)[nH]c3=O)cc2Cl)n[nH]c1=O [Compound 21, 6-(3,5-dichloro-4-((5-isopropyl-6-oxo-1,6-dihydropyridazin-3-yl)oxy)phenyl)-2-(2,2,2-trifluoroethyl)-1,2,4-triazine-3,5(2H,4H)-dione]
21 |  | 5.93 | 5.46 | 12.9 |  |  | CC(C)c1cc(Oc2c(Cl)cc(-c3nn(CC#N)c(=O)[nH]c3=O)cc2Cl)n[nH]c1=O [Compound 22, 2-(6-(3,5-dichloro-4-((5-isopropyl-6-oxo-1,6-dihydropyridazin-3-yl)oxy)phenyl)-3,5-dioxo-4,5-dihydro-1,2,4-triazin-2(3H)-yl)acetonitrile]
